Test results published in patent US20220289753A1, “SHP2 INHIBITORS” (IRBM S.P.A., priority 2019, published 2022).

These molecules were tested against T1, SHP-2 enzyme (Met1-Leu525) (Homo sapiens, UniProt Q06124) (assay: SHP2 inhibition enzymatic assay (DiFMUP substrate, IRS1 peptide activation)). Details: SHP2 wt; activated by 500 nM IRS1 peptide; 75 μM DiFMUP substrate.
T1 construct: synthetized by Origene, Met1-Leu525, cat #TP750155; purchased Origene TP750155
T1 sequence (Q06124 1-525): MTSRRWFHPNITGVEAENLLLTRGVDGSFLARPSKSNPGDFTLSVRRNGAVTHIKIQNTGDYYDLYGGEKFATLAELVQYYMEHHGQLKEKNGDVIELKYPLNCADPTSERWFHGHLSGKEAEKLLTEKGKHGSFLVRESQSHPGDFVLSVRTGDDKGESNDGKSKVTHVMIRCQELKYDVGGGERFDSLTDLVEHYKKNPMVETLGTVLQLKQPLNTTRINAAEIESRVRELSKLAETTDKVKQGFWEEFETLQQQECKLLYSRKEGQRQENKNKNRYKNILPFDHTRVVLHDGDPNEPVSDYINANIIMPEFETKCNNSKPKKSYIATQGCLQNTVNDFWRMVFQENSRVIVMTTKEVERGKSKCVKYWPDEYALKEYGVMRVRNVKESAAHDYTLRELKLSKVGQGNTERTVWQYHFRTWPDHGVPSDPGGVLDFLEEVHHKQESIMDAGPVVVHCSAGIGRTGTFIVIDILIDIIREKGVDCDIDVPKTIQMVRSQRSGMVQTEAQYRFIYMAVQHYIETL
Format: biochemical
Protocol: SHP2 Inhibition Enzymatic Assay
Assay volume of 20 μL/well was assembled in 384 well black polystyrene low-binding microplates (Greiner), using the following buffer: 60 mM HEPES pH 7.2, 75 mM NaCl, 75 mM KCl, 1 mM EDTA pH 8, 0.05% tween-20, 5 mM DTT. The SHP-2 enzyme (synthetized by Origene, Met1-Leu525, cat #TP750155) was used at a final concentration of 0.5 nM.
Briefly, DMSO serially diluted testing compounds were transferred to the bottom of the assay plate. SHP2 was then added together with the IRS1 peptide. 30 minutes post incubation, the DiFMUP substrate was added to the reaction and incubated 30 min at room temperature. […] The fluorescence was detected by a microplate reader (Envision, PerkinElmer) according to the DiFMUP excitation and emission wavelength. The lower the fluorescence the higher the SHP2 inhibition.
The percentage inhibition is fitted against the compound dilutions with a four-parameter logistic regression. The inflection point (i.e. the concentration at which half-maximal inhibition is achieved) is the IC50.

Row | SMILES | IC50 [nM]
1 | FC(F)(F)c1ncccc1Sc1cnc2[nH]c(NCc3ccn[nH]3)nc2n1 [Example 32, N-((1H-pyrazol-5-yl)methyl)-5-((2-(trifluoromethyl)pyridin-3-yl)thio)-1H-imidazo[4,5-b]pyrazin-2-amine] | > 3000
2 | CC1(N)CCN(c2nc3nc(Sc4ccccc4Cl)cnc3[nH]2)CC1 [Example 98, 1-(5-((2-chlorophenyl)thio)-1H-imidazo[4,5-b]pyrazin-2-yl)-4-methylpiperidin-4-amine] | < 500
3 | NCC1CN(c2nc3nc(Sc4cccnc4C(F)(F)F)cnc3[nH]2)C1 [Example 55, (1-(5-((2-(trifluoromethyl)pyridin-3-yl)thio)-1H-imidazo[4,5-b]pyrazin-2-yl)azetidin-3-yl)methanamine] | 500 to 3000
4 | CC1(N)CCN(c2nc3nc(Sc4ccc(C(=O)O)cc4)cnc3[nH]2)CC1 [Example 95, 4-((2-(4-amino-4-methylpiperidin-1-yl)-1H-imidazo[4,5-b]pyrazin-5-yl)thio)benzoic acid] | < 500
5 | CC(C)=Cc1ccccc1Sc1cnc2[nH]c(N3CCC(C)(N)CC3)nc2n1 [Example 75, 4-methyl-1-(5-((2-(2-methylprop-1-en-1-yl)phenyl)thio)-1H-imidazo[4,5-b]pyrazin-2-yl)piperidin-4-amine] | > 3000
6 | OCCN1CCCN(c2nc3nc(Sc4cccnc4C(F)(F)F)cnc3[nH]2)CC1 [Example 79, 2-(4-(5-((2-(trifluoromethyl)pyridin-3-yl)thio)-1H-imidazo[4,5-b]pyrazin-2-yl)-1,4-diazepan-1-yl)ethan-1-ol] | 500 to 3000
7 | FC(F)(F)c1ncccc1Sc1cnc2[nH]c(N3CCC34CCNCC4)nc2n1 [Example 44, 2-(1,7-diazaspiro[3.5]nonan-1-yl)-5-((2-(trifluoromethyl)pyridin-3-yl)thio)-1H-imidazo[4,5-b]pyrazine] | 500 to 3000
8 | CC1(N)CCN(c2nc3ncc(Sc4cccc5ncccc45)nc3[nH]2)CC1 [Example 49, 4-methyl-1-(6-(quinolin-5-ylthio)-1H-imidazo[4,5-b]pyrazin-2-yl)piperidin-4-amine] | < 500
9 | CC1(N)CCN(c2nc3nc(Sc4ccc(-c5nnc(-c6ccccc6)o5)cc4)cnc3[nH]2)CC1 [Example 59, 4-methyl-1-(5-((4-(5-phenyl-1,3,4-oxadiazol-2-yl)phenyl)thio)-1H-imidazo[4,5-b]pyrazin-2-yl)piperidin-4-amine] | 500 to 3000

Other lines, results leading:

Row | IC50 [nM] | SMILES
10 | > 3000 | CC1(N)CCN(c2nc3nc(Sc4ccccc4-c4nccs4)cnc3[nH]2)CC1 [Example 102, 4-methyl-1-(5-((2-(thiazol-2-yl)phenyl)thio)-1H-imidazo[4,5-b]pyrazin-2-yl)piperidin-4-amine]
11 | < 500 | Nc1nccc(Sc2cnc3[nH]c(N4CCC5(CC4)Oc4ccccc4[C@H]5N)nc3n2)c1Cl [Example 159, (R)-1′-(5-((2-amino-3-chloropyridin-4-yl)thio)-1H-imidazo[4,5-b]pyrazin-2-yl)-3H-spiro[benzofuran-2,4′-piperidin]-3-amine]
12 | < 500 | CC1(N)CCN(c2nc3nc(Sc4cccc(CC(=O)O)c4)cnc3[nH]2)CC1 [Example 103, 2-(3-((2-(4-amino-4-methylpiperidin-1-yl)-1H-imidazo[4,5-b]pyrazin-5-yl)thio)phenyl)acetic acid]
13 | > 3000 | Cc1cc(Sc2cnc3[nH]c(N4CCC(C)(N)CC4)nc3n2)c2ccccc2n1 [Example 106, 4-methyl-1-(5-((2-methylquinolin-4-yl)thio)-1H-imidazo[4,5-b]pyrazin-2-yl)piperidin-4-amine]
14 | > 3000 | CC1(N)CCN(c2nc3nc(Sc4ccccc4S(C)(=O)=O)cnc3[nH]2)CC1 [Example 117, 4-methyl-1-(5-((2-(methylsulfonyl)phenyl)thio)-1H-imidazo[4,5-b]pyrazin-2-yl)piperidin-4-amine]
15 | < 500 | Nc1nccc(Sc2cnc3[nH]c(N4CCC5(CC4)Cc4ccc(O)cc4[C@H]5N)nc3n2)c1Cl [Example 208, (S)-1-amino-1′-(5-((2-amino-3-chloropyridin-4-yl)thio)-1H-imidazo[4,5-b]pyrazin-2-yl)-1,3-dihydrospiro[indene-2,4′-piperidin]-6-ol]
